Reference: patent EP1019398B1, “BENZO(5,6)CYCLOHEPTA(1,2-B)PYRIDINE DERIVATIVES USEFUL FOR INHIBITION OF FARNESYL PROTEIN TRANSFERASE” (SCHERING CORPORATION, priority 1997, dated 1998)

Experiments:
COS Cell = COS Cell IC50 (Cell-Based Assay), procedure of WO 95/10516; conditions: one range stated for the listed examples
Procedure: FPT IC50 (inhibition of farnesyl protein transferase. in vitro enzyme assay) and COS Cell IC50 (Cell-Based Assay) were determined following the assay procedures described in WO 95/10516, published April 20. 1995. GGPT IC50 (inhibition of geranylgeranyl protein transferase, in vitro enzyme assay). Cell Mat Assay, and anti-tumor activity (in vivo anti-tumor studies) could be determined by the assay procedures described in WO 95/10516. The disclosure of WO 95/10516 is incorporated herein by reference thereto.

Human tumor cells = assay: Soft Agar Assay (anchorage-independent growth, colony count after MTT staining); type: cell-based; conditions: 0.3% agarose top layer over 0.6% agarose, 10-16 days at 37°C under 5% CO2
Procedure: Anchorage-independent growth is a characteristic of tumorigenic cell lines. Human tumor cells can be suspended in growth medium containing 0.3% agarose and an indicated concentration of a farnesyl transferase inhibitor. The solution can be overlayed onto growth medium solidified with 0.6% agarose containing the same concentration of farnesyl transferase inhibitor as the top layer. After the top layer is solidified, plates can be incubated for 10-16 days at 37°C under 5% CO2 to allow colony outgrowth. After incubation, the colonies can be stained by overlaying the agar with a solution of MTT (3-[4,5-dimethylthiazol-2-yl]-2,5-diphenyltetrazolium bromide, Thiazolyl blue) (1 mg/mL in PBS). Colonies can be counted and the IC50's can be determined.

IC50 (Human tumor cells) [nM]	Structure (SMILES)	IC50 (COS Cell) [nM]
	O=C(CN1CCSCC1)N1CCC([C@H]2c3ncc(Br)cc3CCc3cc(Cl)cc(Br)c32)CC1 [Example 37]	1.8 to 143
8	O=C(CC1CCOCC1)N1CCC(C2c3c(Br)cc(Cl)cc3CCc3cc(Br)c[n+]([O-])c32)CC1 (centres unmarked) [Example 40]	1.8 to 143
	O=C(CC1CCOCC1)N1CCC([C@H]2c3ncc(Br)cc3CCc3cc(Cl)cc(Br)c32)CC1 [Example 1]	1.8 to 143
	O=C(C=C1CCOCC1)N1CCC([C@H]2c3ncc(Br)cc3CCc3cc(Cl)cc(Br)c32)CC1 [Example 2]	1.8 to 143
	O=C(CC1CCSCC1)N1CCC([C@H]2c3ncc(Br)cc3CCc3cc(Cl)cc(Br)c32)CC1 [Example 5]	1.8 to 143
	O=C(CN1CC[S+]([O-])CC1)N1CCN(C2c3ccc(Cl)c(Br)c3CCc3cc(Br)cnc32)CC1 (single isomer, unassigned) [Example 39]	1.8 to 143
	O=C(CC1CCCCO1)N1CCC([C@H]2c3ncc(Br)cc3CCc3cc(Cl)cc(Br)c32)CC1 (some centres unmarked) [Example 8]	1.8 to 143
